Laboratory results taken from US10258599B2, “Compounds for use in the prevention or treatment of cancer” (SEMMELWEIS UNIVERSITY, priority 2014, dated 2019).

Tests used:
[1] = test system: male Wistar rats (Charles River); experiment: Longevity study: survival of rats treated 3 times a week s.c.; assay type: in vivo, rat
Protocol: Experiments were carried out on male Wistar rats (Charles River) weighing 250-350 g received from the breeding colony of Semmelweis University. The animals were kept in a 12-hour light-dark cycle and under condition of controlled temperature (22±2° C.) and relative humidity (55±5%). Room temperature and relative humidity was checked daily. The rats were maintained on standard laboratory chow and tap water ad libitum. All procedures conformed to the European Convention for the protection of vertebrate animals used for experimental and other scientific purposes. The study was approved by the Animal Ethics Committee of Semmelweis University, Budapest (permission number: 1810/003/2004)
The longevity study was performed on 200 male rats received from the breeding colony of the Semmelweis University. The rats were born at the end of February of 2010. After 2-month acclimation period the rats were divided randomly into 5 even groups. The longevity study started at the beginning of May 2010. Animals were observed until their natural deaths. The data in this study represent the changes observed until Oct. 31, 2012, since in the saline-treated group the last animal died on Oct. 31, 2012. As will be shown later a few rats in the enhancer-treated groups were still alive on Nov. 1, 2012.
During the longevity study 5 rats were housed together in polycarbonate cages (height: 18 cm; wide: 42 cm; length: 44 cm) with a stainless steel on the top. Cage bedding was renewed 3 times a week (Monday, Wednesday and Friday). Bodyweight was measured once every month. The treatment started at the end of the second month of their age.
To avoid the mixing of the groups and individuals, saline-treated rats were signed blue from 1 to 40; D-treated rats were signed green from 1 to 80 (1-40: rats treated with 0.1 mg/kg and 41-80: rats treated with 0.001 mg/kg); B-treated rats were signed black from 1 to 80 (1-40: rats treated with 0.05 mg/kg and 41-80: rats treated with 0.0001 mg/kg).
Significance in the performance between the groups in the shuttle box was evaluated by multi-factor analysis of variance (ANOVA). Significance regarding the span of time from tumor manifestation until death in rats and regarding aging related changes in bodyweight treated chronically with the enhancer substances was analyzed by One-way ANOVA. Statistical analysis of survival rate and tumor manifestation was performed by the Kaplan-Meier method.

isolated rat brain stem = conditions: optimal concentration for the specific enhancer effect, 3-min collection period; review Knoll, 2005; cited from earlier work
[2] = test system: mouse colon carcinoma cells (C38); experiment: Mouse colon carcinoma (C38) spleen inoculation, liver metastasis; assay type: in vivo; conditions: 0.0001 mg/kg s.c. daily from one week before inoculation, day 23, p<0.05
Protocol: In this study 30.000 mouse colon carcinoma cells (C38) were inoculated into the spleen of C57BI/6 mice and macroscopic liver metastasis observed on day 23 after inoculation. In the experiment a group of mice pretreated daily subcutaneously for one week with 0.0001 mg/kg BPAP prior to the inoculation of 30.000 cells/animal and further treated until the end of the experiment (23rd day) whereas the control animals have not received BPAP.

[3] = test system: isolated locus coerulei of rats; experiment: Norepinephrine release from isolated locus coerulei in organ bath; set-up: species or system rat; conditions: released within 20 min (FIG. 18)
Protocol: In this study (−)-BPAP was given to the organ bath of the quickly removed locus coerulei of rats. Eight organs were used for the analysis of each concentration. The amount of norepinephrine released within 20 min from the tissue in the presence of different concentrations of (−)-BPAP was measured according to Knoll and Miklya (1995) (Paired Student's t-test. *P<0.01, **P<0.001.)

UW-228-2 cell line = experiment: MTT proliferation assay, UW-228-2 medulloblastoma cells; assay type: cell-based, human; conditions: for proliferation of cultured medulloblastoma cells: UW-228-2, monotherapy, nine concentrations 10^-14 to 10^-6 M, 72 hours
Protocol: Human medulloblastoma cell line, Daoy was purchased from ATCCC, UW-228 was obtained from the courtesy of Professor Silber (Univerity of Washington, Seattle, Wash., USA).
Daoy and UW-228-2 cell lines were maintained in culture medium (each 500 ml Minimum Essential Medium Eagle, Alpha Modification (M8042, Sigma, St Louis, USA) with 50 ml FCS (Gibco), 40 mg Gentamicin (Sandoz), 5 ml sodium-pyruvate (S8636, Sigma, St Louis, USA), 5 ml non-essential-amino acid solution (M7145, Sigma, St Louis, USA), 10 ml L-glutamin (Sigma, St Louis, USA) at 37° C. in humified 5% CO2.
In each well 3×10^3 Daoy or UW-228-2 cells were seeded in 96-well plates (Sarstedt), solved in 100 μl of its own medium with 10% FCS. 24 hours after seeding, cells were treated for 72 hours by drugs solved in further 100 μl medium. First, both cell lines were treated by (−)-BPAP and (−)-deprenil in monotherapy to determine its dose-effect curves in concentration of 10^−6, 10^−7, 10^−8, 10^−9, […], 10^−11, 10^−12, 10^−13 and 10^−14 M. In combined treatment 10^−3, 3.3×10^−4, […] and 3.7×10^−5 M of temozolomide (Schering Plough, USA) or 0.04, 0.2, 1, 5 μM of Cisplatin (Ebewe Pharma, Austria) or 0.04, 0.2, 1, 5 μM of etoposide (Ebewe Pharma, Austria) or 10^−7, 10^−6, 10^−5 and 10^−4 μM (UW228-2) or 0.001, 0.005, 0.025 and 0.125 μM (Daoy) of Vincristin (Richter Gedeon, Hungary) were applied in monotherapy or combined with 10^−13 or 10^−8 M of (−)-BPAP or (−)-deprenil.
Cell proliferation was evaluated by MTT (3-(4,5-Dimethylthiazol-2-yl)-2,5-diphenyltetrazolium bromide) assay (M5655, Sigma) after 72-hour treatment by the method described in manufacturer's protocol.

[4] = test system: mouse lung adenocarcinoma tumors; experiment: Mouse lung adenocarcinoma xenograft model in FVB/N mice; assay type: in vivo
Protocol: Mouse primary lung adenocarcinoma tumors maintained subcutaneously were utilized in the present study. Tumors with sizes of 3 mm in diameter were implanted subcutaneously in a total of 18 FVB/N female mice with a bodyweight of 25 g. From the day after tumor inoculation, 6-6 animals started receiving (−)-BPAP daily as a subcutaneous injection at a concentration of either 0.0001 mg/kg (low dose) or 0.05 mg/kg (high dose). Tumor sizes were measured twice a week using a digital caliper. Tumor volumes were calculated by the following formula: […]
Statistical analyses were made by Graphpad Prism 4.03 software. Significances of changes between control and (−)-BPAP-treated groups were assessed by using Mann-Whitney U-test. Significance was declared at the standard p<0.05 level.

For `CCCN[C@H](CCC)Cc1cc2ccccc2o1` [(−)-BPAP, (2R)-1-(1-benzofuran-2-yl)-N-propylpentane-2-amine], the “lifespan compared with saline-treated peers” value ([1]; 0.0001 mg/kg 3 times a week, P<0.05) was “lived significantly longer”, the “month of age in which the first animal died” value ([1]; 0.0001 mg/kg s.c. 3 times a week, N=40) was 16 month and the “rats remained alive to the end of the 32nd month” value ([1]; 0.0001 mg/kg, N=40, listed as BPAP) was “one and One”. For the same molecule, the “month of age in which the first animal died” value ([1]; 0.05 mg/kg s.c. 3 times a week, N=40) was 14 month, the “lifespan compared with saline-treated peers” value ([1]; both doses of the longevity study (FIGS. 5-8)) was “significantly longer” and the “released amount of labeled transmitter ([3H]-norepinephrine, [3H]-dopamine or [3H]-serotonin)” value (isolated rat brain stem) was “significantly higher”. For the same molecule, the “number of macroscopic liver metastasis” value [2] was 2 tumors/liver, the “concentration effect curve of norepinephrine release” value [3] was “bi-modal, bell-shaped” and the “effectiveness of tumor-cell proliferation inhibiting agents in combination” value (UW-228-2 cell line; UW-228-2, 10^-13 or 10^-8 M combined with temozolomide, Cisplatin, etoposide or Vincristin) was “did not change the effectiveness”. For the same molecule, the “proliferation of cultured medulloblastoma cells” value (UW-228-2 cell line) was “did not inhibit the proliferation”, the “proliferation of cultured medulloblastoma cells” value (UW-228-2 cell line; listed as BPAP) was “none of the applied concentrations did Deprenyl or BPAP influence the proliferation” and the “tumor volume versus control” value ([4]; high dose 0.05 mg/kg s.c. daily) was “did not reach statistical significance”. For the same molecule, the “tumor volume versus control” value ([4]; low dose 0.0001 mg/kg s.c. daily, from day 12 after implantation, p<0.05) was “significant differences in tumor volume”.
